Source: ChEMBL document CHEMBL4152193, “Phthalimide conjugations for the degradation of oncogenic PI3K” (Eur J Med Chem, 2018)
Activity calls are given as the source filed them. No cut-off for these calls is given here.

Assays:
[1] = target: Phosphatidylinositol 4,5-bisphosphate 3-kinase catalytic subunit alpha isoform (Homo sapiens, UniProt P42336); experiment: Inhibition of PI3Kalpha (unknown origin) using PIP2 as substrate after 1 hr by Kinase-Glo luminescent kinase assay
HepG2 [2] = experiment: Induction of autophagy in GFP-LC3 transfected human HepG2 cells assessed as increase in LC3 puncta at 10 uM after 6 hrs by DAPI staining-based fluorescence microscopy; type: functional, cell-based
HepG2 [3] = experiment: Cell cycle arrest in human HepG2 cells assessed as accumulation at G0/G1 phase at 10 uM after 24 hrs by flow cytometric analysis (reference value: 86.6%); type: functional
HepG2 [4] = experiment: Induction of apoptosis in human HepG2 cells assessed as necrotic cells at 10 uM after 24 hrs by Annexin V-FITC/propidium iodide staining-based flow cytometric analysis (reference value: 0.052%); type: functional
[5] = target: T1, Protein cereblon-pI3K (Homo sapiens) (UniProt P42338+P48736+P42336+O00329+Q96SW2); experiment: Protac activity against PI3K/E3 ligase in human HepG2 cells assessed as increase in conversion of LC3B-1 to LC3B-2 at 10 uM after 3 hrs in human HepG2 cells by Western blot analysis; type: cell-based
HepG2 [6] = experiment: Cell cycle arrest in human HepG2 cells assessed as accumulation at S phase at 5 uM after 24 hrs by flow cytometric analysis (reference value: 3.77%); type: functional
HepG2 [7] = experiment: Induction of apoptosis in human HepG2 cells assessed as viable cells at 5 uM after 24 hrs by Annexin V-FITC/propidium iodide staining-based flow cytometric analysis (reference value: 90.1%); type: functional; conditions: HepG2, 24 h, read-out: Activity
HepG2 [8] = experiment: Induction of apoptosis in human HepG2 cells assessed as necrotic cells at 25 uM after 24 hrs by Annexin V-FITC/propidium iodide staining-based flow cytometric analysis (reference value: 0.052%); type: functional
HepG2 [9] = experiment: Induction of apoptosis in human HepG2 cells assessed as early apoptotic cells at 10 uM after 24 hrs by Annexin V-FITC/propidium iodide staining-based flow cytometric analysis (reference value: 2.46%); type: functional
[10] = target: T1, Protein cereblon-pI3K (Homo sapiens); experiment: Protac activity against PI3K/E3 ligase in human HepG2 cells assessed as reduction in cyclin D1 protein level at 10 uM in human HepG2 cells by Western blot analysis; type: cell-based; conditions: TDE = time-dependent effect
HepG2 [11] = experiment: Induction of apoptosis in human HepG2 cells assessed as viable cells at 25 uM after 24 hrs by Annexin V-FITC/propidium iodide staining-based flow cytometric analysis (reference value: 90.1%); type: functional; conditions: HepG2, 24 h, read-out: Activity
HepG2 [12] = experiment: Induction of apoptosis in human HepG2 cells assessed as necrotic cells at 5 uM after 24 hrs by Annexin V-FITC/propidium iodide staining-based flow cytometric analysis (reference value: 0.052%); type: functional
HepG2 [13] = experiment: Induction of apoptosis in human HepG2 cells assessed as late apoptotic cells at 25 uM after 24 hrs by Annexin V-FITC/propidium iodide staining-based flow cytometric analysis (reference value: 7.34%); type: functional
HepG2 [14] = experiment: Cell cycle arrest in human HepG2 cells assessed as accumulation at G2/M phase at 25 uM after 24 hrs by flow cytometric analysis (reference value: 9.25%); type: functional
[15] = target: T1, Protein cereblon-pI3K (Homo sapiens); experiment: Protac activity against PI3K/E3 ligase in human HepG2 cells assessed as reduction in Akt phosphorylation at Ser-473 residue in human HepG2 cells after 24 hrs by Western blot analysis; type: cell-based
[16] = target: T1, Protein cereblon-pI3K (Homo sapiens); experiment: Protac activity against PI3K/E3 ligase in human HepG2 cells assessed as reduction in phosphorylated GSK3beta protein level at 10 uM in human HepG2 cells by Western blot analysis; type: cell-based; conditions: TDE = time-dependent effect
HepG2 [17] = experiment: Cell cycle arrest in human HepG2 cells assessed as accumulation at S phase at 10 uM after 24 hrs by flow cytometric analysis (reference value: 3.77%); type: functional
HepG2 [18] = experiment: Cell cycle arrest in human HepG2 cells assessed as accumulation at G2/M phase at 5 uM after 24 hrs by flow cytometric analysis (reference value: 9.25%); type: functional
HepG2 [19] = experiment: Cell cycle arrest in human HepG2 cells assessed as accumulation at G0/G1 phase at 25 uM after 24 hrs by flow cytometric analysis (reference value: 86.6%); type: functional
HepG2 [20] = experiment: Cell cycle arrest in human HepG2 cells assessed as accumulation at G0/G1 phase at 5 uM after 24 hrs by flow cytometric analysis (reference value: 86.6%); type: functional
HepG2 [21] = experiment: Cell cycle arrest in human HepG2 cells assessed as accumulation at G2/M phase at 10 uM after 24 hrs by flow cytometric analysis (reference value: 9.25%); type: functional
HepG2 [22] = experiment: Cell cycle arrest in human HepG2 cells assessed as accumulation at S phase at 25 uM after 24 hrs by flow cytometric analysis (reference value: 3.77%); type: functional
HepG2 [23] = experiment: Induction of apoptosis in human HepG2 cells assessed as early apoptotic cells at 25 uM after 24 hrs by Annexin V-FITC/propidium iodide staining-based flow cytometric analysis (reference value: 2.46%); type: functional
HepG2 [24] = experiment: Induction of apoptosis in human HepG2 cells assessed as late apoptotic cells at 5 uM after 24 hrs by Annexin V-FITC/propidium iodide staining-based flow cytometric analysis (reference value: 7.34%); type: functional
HepG2 [25] = experiment: Induction of apoptosis in human HepG2 cells assessed as early apoptotic cells at 5 uM after 24 hrs by Annexin V-FITC/propidium iodide staining-based flow cytometric analysis (reference value: 2.46%); type: functional
[26] = target: T1, Protein cereblon-pI3K (Homo sapiens); experiment: Protac activity against PI3K/E3 ligase in human HepG2 cells assessed as reduction in phosphorylated S6K protein level in human HepG2 cells after 24 hrs by Western blot analysis; type: cell-based
HepG2 [27] = experiment: Antiproliferative activity against human HepG2 cells at 1 to 50 uM after 48 hrs by MTT assay; type: functional, cell-based
HepG2 [28] = experiment: Antiproliferative activity against human HepG2 cells assessed as inhibition of cell proliferation at 10 uM after 48 hrs by MTT assay; type: functional; conditions: HepG2, 48 h
HepG2 [29] = experiment: Induction of apoptosis in human HepG2 cells assessed as late apoptotic cells at 10 uM after 24 hrs by Annexin V-FITC/propidium iodide staining-based flow cytometric analysis (reference value: 7.34%); type: functional
[30] = target: T1, Protein cereblon-pI3K (Homo sapiens); experiment: Protac activity against PI3K/E3 ligase in human HepG2 cells assessed as induction of p110alpha protein degradation at 10 uM in human HepG2 cells by Western blot analysis; type: cell-based
HepG2 [31] = experiment: Induction of apoptosis in human HepG2 cells assessed as viable cells at 10 uM after 24 hrs by Annexin V-FITC/propidium iodide staining-based flow cytometric analysis (reference value: 90.1%); type: functional; conditions: HepG2, 24 h, read-out: Activity

O=C1CCC(N2C(=O)c3cccc(NC(=O)CCCCCN4CCN(c5nc(N6CCOCC6)nc(-n6c(C(F)F)nc7ccccc76)n5)CC4)c3C2=O)C(=O)N1 (stereo unspecified)
IC50 [1]: 2.85 µM

O=C(CCC(=O)N1CCN(c2nc(N3CCOCC3)nc(-n3c(C(F)F)nc4ccccc43)n2)CC1)NCCCCCC(=O)Nc1cccc2c1C(=O)N(C1CCC(=O)NC1=O)C2=O (stereo unspecified)
Activity (HepG2 [2]): Active | Activity (HepG2 [3]): 85.6% | Activity (HepG2 [4]): 0.4% | Activity [5]: Active | Activity (HepG2 [6]): 3.79% | viability at 5 µM (HepG2 [7]): 71.7% | Activity (HepG2 [8]): 0.426% | Activity (HepG2 [9]): 14.7% | Activity [10]: Tde | viability at 25 µM (HepG2 [11]): 68.9% | Activity (HepG2 [12]): 0.152% | Activity (HepG2 [13]): 20.4% | Activity (HepG2 [14]): 12.9% | Activity [15]: Dose-dependent effect | IC50 [1]: 0.024 µM | Activity [16]: Tde | Activity (HepG2 [17]): 3.49% | Activity (HepG2 [18]): 9.99% | Activity (HepG2 [19]): 81.3% | Activity (HepG2 [20]): 85.6% | Activity (HepG2 [21]): 10.5% | Activity (HepG2 [22]): 5.73% | Activity (HepG2 [23]): 10.3% | Activity (HepG2 [24]): 17.9% | Activity (HepG2 [25]): 10.3% | Activity [26]: Dose-dependent effect | Activity (HepG2 [27]): Dose-dependent effect | inhibition at 10 µM (HepG2 [28]): ≤ 50% | Activity (HepG2 [29]): 19.3% | Activity [30]: < 50% | viability at 10 µM (HepG2 [31]): 65.6%

O=C1CCC(N2C(=O)c3cccc(NC(=O)CCCn4cc(CN5CCN(c6nc(N7CCOCC7)nc(-n7c(C(F)F)nc8ccccc87)n6)CC5)nn4)c3C2=O)C(=O)N1 (stereo unspecified)
Activity [5]: Active | Activity [10]: Tde | Activity [15]: Dose-dependent effect | IC50 [1]: 0.09 µM | Activity [16]: Tde | Activity [26]: Dose-dependent effect | Activity (HepG2 [27]): Dose-dependent effect | inhibition at 10 µM (HepG2 [28]): ≤ 50% | Activity [30]: < 50%

O=C(CCC(=O)N1CCN(c2nc(N3CCOCC3)nc(-n3c(C(F)F)nc4ccccc43)n2)CC1)NCCCC(=O)Nc1cccc2c1C(=O)N(C1CCC(=O)NC1=O)C2=O (stereo unspecified)
Activity [5]: Active | Activity [10]: Tde | Activity [15]: Dose-dependent effect | IC50 [1]: 0.018 µM | Activity [16]: Tde | Activity [26]: Dose-dependent effect | Activity (HepG2 [27]): Dose-dependent effect | inhibition at 10 µM (HepG2 [28]): ≤ 50% | Activity [30]: < 50%

O=C1CCC(N2C(=O)c3cccc(NC(=O)CCCCCn4cc(CN5CCN(c6nc(N7CCOCC7)nc(-n7c(C(F)F)nc8ccccc87)n6)CC5)nn4)c3C2=O)C(=O)N1 (stereo unspecified)
Activity [5]: Active | Activity [10]: Tde | Activity [15]: Dose-dependent effect | IC50 [1]: 0.086 µM | Activity [16]: Tde | Activity [26]: Dose-dependent effect | Activity (HepG2 [27]): Dose-dependent effect | inhibition at 10 µM (HepG2 [28]): ≤ 50% | Activity [30]: < 50%

O=C(CCC(=O)NCCCC(=O)Nc1cccc2c1C(=O)N(C1CCC(=O)NC1=O)C2=O)NCCCCCC(=O)N1CCN(c2nc(N3CCOCC3)nc(-n3c(C(F)F)nc4ccccc43)n2)CC1 (stereo unspecified)
IC50 [1]: 0.038 µM | Activity (HepG2 [27]): inactive
